Experiment [1] addresses T1, WD repeat-containing protein 5 (Homo sapiens, UniProt P61964). As to the kind of experiment: Displacement of fluorescence-labelled Ac-ARA peptide from WDR5 (unknown origin) by fluorescence polarization assay. In general terms: Fluorescence polarisation rises when a labelled molecule tumbles more slowly, as on binding a larger partner.
The target in experiment [2] is T1, WD repeat-containing protein 5. As to the kind of experiment: Displacement of 5-FAM labelled tracer from WDR5 (unknown origin) by fluorescence polarization assay.
Experiment [3] has the same target. The experiment in a line: Displacement of Ac-ARTEVHLRKS-(Ahx)-(Ahx)-K(5-FAM)-NH2 from recombinant full-length human N-terminal His6-tagged WDR5 (1 to 334 residues) expressed in Escherichia coli BL21 (DE3) after 2 hrs by fluorescence polarization assay.
Experiment [4] concerns the target Histone-lysine N-methyltransferase 2D (Homo sapiens, UniProt O14686). As to the kind of experiment: Inhibition of MLL2 (unknown origin) using SAM as substrate preincubated for 15 mins followed by substrate addition and measured after 1 hr by Alphalisa assay. Background: Alpha assays give light when donor and acceptor beads are brought close together.
Experiment [5] has as its target Protein arginine N-methyltransferase 1 (Homo sapiens, UniProt Q99873). The experiment in a line: Inhibition of PRMT1 (unknown origin) using SAM as substrate preincubated for 15 mins followed by substrate addition and measured after 1 hr by Alphalisa assay.
Experiment [6] concerns the target Histone-lysine N-methyltransferase SETD1B (Homo sapiens, UniProt Q9UPS6). The experiment in a line: Inhibition of SETD1B (unknown origin) using SAM as substrate preincubated for 15 mins followed by substrate addition and measured after 1 hr by Alphalisa assay.
Experiment [7] deals with T2, Histone-lysine N-methyltransferase EHMT2 (Homo sapiens, UniProt Q96KQ7).
T2 sequence (Q96KQ7 whole entry): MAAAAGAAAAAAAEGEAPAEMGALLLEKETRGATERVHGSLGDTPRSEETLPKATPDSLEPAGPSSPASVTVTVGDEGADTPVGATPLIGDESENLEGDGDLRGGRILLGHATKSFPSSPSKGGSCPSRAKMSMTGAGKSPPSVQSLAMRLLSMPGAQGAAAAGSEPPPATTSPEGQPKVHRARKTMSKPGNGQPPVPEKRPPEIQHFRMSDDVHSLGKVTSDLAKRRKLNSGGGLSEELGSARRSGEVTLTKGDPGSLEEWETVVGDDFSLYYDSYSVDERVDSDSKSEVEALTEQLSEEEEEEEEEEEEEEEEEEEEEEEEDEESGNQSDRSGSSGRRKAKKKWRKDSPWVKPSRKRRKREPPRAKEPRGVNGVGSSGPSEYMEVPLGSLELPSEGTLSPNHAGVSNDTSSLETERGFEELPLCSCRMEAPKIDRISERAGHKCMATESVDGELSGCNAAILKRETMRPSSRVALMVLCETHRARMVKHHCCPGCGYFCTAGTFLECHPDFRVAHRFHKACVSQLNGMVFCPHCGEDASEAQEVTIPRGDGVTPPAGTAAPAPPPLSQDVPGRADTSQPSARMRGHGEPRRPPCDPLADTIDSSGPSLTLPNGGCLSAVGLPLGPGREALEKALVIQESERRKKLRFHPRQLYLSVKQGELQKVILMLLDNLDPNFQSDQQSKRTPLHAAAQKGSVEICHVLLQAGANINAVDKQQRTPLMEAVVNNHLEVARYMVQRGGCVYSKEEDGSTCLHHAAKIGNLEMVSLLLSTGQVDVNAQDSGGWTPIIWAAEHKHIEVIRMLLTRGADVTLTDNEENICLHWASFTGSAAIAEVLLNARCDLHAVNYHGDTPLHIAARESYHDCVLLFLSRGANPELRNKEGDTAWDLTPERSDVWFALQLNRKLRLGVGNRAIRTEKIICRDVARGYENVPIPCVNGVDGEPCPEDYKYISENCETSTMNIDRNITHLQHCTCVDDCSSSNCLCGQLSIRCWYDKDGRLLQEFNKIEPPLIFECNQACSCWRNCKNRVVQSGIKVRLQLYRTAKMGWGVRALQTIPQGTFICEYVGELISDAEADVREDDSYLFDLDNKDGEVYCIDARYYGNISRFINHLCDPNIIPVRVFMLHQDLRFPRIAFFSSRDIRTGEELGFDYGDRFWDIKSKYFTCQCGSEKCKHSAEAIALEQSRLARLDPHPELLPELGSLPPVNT
The experiment in a line: Inhibition of G9a (unknown origin) using SAM as substrate preincubated for 15 mins followed by substrate addition and measured after 1 hr by Alphalisa assay.

Experiment [8] deals with T1, WD repeat-containing protein 5. As to the kind of experiment: Binding affinity to recombinant full-length human N-terminal His6-tagged WDR5 (1 to 334 residues) expressed in Escherichia coli BL21 (DE3) by surface plasmon resonance analysis. Background: SPR reads the build-up and loss of mass on a sensor chip optically.
Another experiment deals with MV4-11. The experiment in a line: Antiproliferative activity against human MV4-11 cells harboring MLL-AF4 fusion protein assessed as cell growth inhibition after 5 days by Celltiter-Glo luminescent assay. The note with it: MV4-11, 120 h. It counts as functional, cell-based.
The next experiment concerns K562. The experiment in a line: Antiproliferative activity against human K562 cells assessed as cell growth inhibition after 5 days by Celltiter-Glo luminescent assay. It counts as functional, cell-based. The note with it: K562, 120 h.

Chain of Protein arginine N-methyltransferase 1 (Q99873 whole entry): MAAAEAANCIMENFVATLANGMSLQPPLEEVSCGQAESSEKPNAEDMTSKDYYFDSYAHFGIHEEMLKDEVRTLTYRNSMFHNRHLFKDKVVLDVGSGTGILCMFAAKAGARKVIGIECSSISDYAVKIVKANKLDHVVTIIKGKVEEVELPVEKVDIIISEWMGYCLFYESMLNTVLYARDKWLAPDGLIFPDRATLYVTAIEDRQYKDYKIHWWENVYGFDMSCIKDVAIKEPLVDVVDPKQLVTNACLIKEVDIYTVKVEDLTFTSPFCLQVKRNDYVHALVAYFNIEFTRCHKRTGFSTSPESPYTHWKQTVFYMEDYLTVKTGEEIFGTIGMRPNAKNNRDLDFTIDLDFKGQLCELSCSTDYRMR
Chain of Histone-lysine N-methyltransferase SETD1B (Q9UPS6 whole entry): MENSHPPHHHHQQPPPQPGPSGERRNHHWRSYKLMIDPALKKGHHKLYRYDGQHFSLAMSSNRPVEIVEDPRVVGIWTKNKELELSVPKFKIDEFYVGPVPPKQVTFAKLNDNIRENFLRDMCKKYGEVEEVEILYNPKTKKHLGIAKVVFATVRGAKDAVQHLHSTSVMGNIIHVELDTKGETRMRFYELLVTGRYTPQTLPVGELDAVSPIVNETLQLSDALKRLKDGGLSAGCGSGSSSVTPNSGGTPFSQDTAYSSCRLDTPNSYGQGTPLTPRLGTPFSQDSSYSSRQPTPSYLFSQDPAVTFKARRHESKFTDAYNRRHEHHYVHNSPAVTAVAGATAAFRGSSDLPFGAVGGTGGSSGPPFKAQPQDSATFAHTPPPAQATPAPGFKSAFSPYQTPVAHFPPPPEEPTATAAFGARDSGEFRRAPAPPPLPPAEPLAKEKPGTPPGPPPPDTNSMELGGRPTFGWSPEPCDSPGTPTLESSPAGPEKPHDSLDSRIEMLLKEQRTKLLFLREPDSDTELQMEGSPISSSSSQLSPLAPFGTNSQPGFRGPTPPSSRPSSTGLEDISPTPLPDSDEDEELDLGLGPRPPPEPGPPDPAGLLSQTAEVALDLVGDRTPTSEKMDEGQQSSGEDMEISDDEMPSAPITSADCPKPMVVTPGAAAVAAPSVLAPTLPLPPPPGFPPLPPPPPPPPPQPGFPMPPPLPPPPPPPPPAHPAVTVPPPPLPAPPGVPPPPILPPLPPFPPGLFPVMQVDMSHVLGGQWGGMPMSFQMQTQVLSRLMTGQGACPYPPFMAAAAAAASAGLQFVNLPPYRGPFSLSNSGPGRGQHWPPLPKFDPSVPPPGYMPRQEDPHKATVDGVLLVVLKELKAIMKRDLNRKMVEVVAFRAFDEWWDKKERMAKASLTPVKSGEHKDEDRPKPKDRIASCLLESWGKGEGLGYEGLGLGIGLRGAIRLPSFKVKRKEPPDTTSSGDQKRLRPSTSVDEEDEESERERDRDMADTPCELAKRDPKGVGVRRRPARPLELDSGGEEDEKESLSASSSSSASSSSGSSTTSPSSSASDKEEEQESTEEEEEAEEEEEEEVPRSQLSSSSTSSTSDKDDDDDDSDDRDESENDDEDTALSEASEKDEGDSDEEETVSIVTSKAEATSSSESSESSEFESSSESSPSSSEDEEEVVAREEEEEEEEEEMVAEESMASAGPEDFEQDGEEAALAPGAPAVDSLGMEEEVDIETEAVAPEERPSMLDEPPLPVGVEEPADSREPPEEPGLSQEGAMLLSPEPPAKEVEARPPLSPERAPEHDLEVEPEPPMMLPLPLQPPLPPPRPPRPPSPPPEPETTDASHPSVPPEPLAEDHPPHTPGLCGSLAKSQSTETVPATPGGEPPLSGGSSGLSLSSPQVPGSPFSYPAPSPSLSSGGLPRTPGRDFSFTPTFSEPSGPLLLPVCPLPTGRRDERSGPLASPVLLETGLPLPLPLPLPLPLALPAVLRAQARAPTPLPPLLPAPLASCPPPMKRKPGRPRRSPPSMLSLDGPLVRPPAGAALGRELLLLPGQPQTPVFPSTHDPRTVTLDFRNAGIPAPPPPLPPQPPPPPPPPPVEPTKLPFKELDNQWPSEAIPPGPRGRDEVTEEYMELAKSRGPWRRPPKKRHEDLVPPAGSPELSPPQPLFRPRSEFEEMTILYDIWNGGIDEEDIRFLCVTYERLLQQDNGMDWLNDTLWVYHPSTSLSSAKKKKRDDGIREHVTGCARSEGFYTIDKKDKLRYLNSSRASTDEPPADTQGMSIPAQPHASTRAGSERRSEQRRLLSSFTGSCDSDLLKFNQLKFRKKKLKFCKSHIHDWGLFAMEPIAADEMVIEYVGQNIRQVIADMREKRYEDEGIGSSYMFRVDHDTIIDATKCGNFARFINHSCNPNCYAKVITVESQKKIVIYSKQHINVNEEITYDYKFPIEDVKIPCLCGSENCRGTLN

A word on the IC50: it is the concentration that inhibits the measured activity by half. Usually Ki stands for a dissociation constant, usually derived from enzyme kinetics or from competition with a known ligand. The low end stands for a stronger hold on the target, the high end for a looser hold on the target. In experiment [1], `CCC(CC)(NC(=O)C(C)C)C(=O)N[C@@H](CCCNC(=N)N)C(=O)NC1(C(=O)NC(c2ccc(Cl)cc2)c2ccc(Cl)cc2)CCCC1` displayed an IC50 of 0.0045 µM. For the same compound, the Ki in [2] is below 0.001 µM.
Regarding `COc1ccc(S(=O)(=O)Nc2ccc(C(=O)O)cc2)cc1C(C)(C)C`, the IC50 in experiment [3] is 48 µM.
Still for that read-out and setting: the value for `CCCCOc1ccc(S(=O)(=O)Nc2cccc(C(=O)O)c2)cc1C` was 30 µM; that for `Cc1c(Cl)ccc(S(=O)(=O)Nc2cccc(C(=O)O)c2)c1Cl` was 13 to 13.1 µM.
One may read the Kd as the concentration at which binding is half-saturated. As for `CCCCOc1ccc(S(=O)(=O)Nc2ccc(C(=O)O)cc2)cc1C`, the IC50 was 13 µM in [3]; above 100 µM in [4]; above 100 µM in [5]; above 100 µM in experiment [6]; above 100 µM in [7]; 31.2 µM with MV4-11. In addition, in the experiment on K562, the IC50 came out at 72.1 µM. Moreover, the Kd in experiment [8] worked out at 15.8 µM.
Regarding `O=C(O)c1cc(NS(=O)(=O)c2ccc(Cl)cc2)cc(C(=O)O)c1`, the IC50 in experiment [3] was determined as 22 µM.
Same read-out and setting: the value for `CCCCOc1ccc(S(=O)(=O)Nc2ccccc2C(=O)O)cc1C` was 22 µM.

For the origin of these results see ChEMBL document CHEMBL4330131, “The identification of novel small-molecule inhibitors targeting WDR5-MLL1 interaction through fluorescence polarization based high-throughput screening” (Bioorg Med Chem Lett, 2019).
